Laboratory results taken from patent US20250060368A1, “METHODS OF DETECTING AND TREATING IMMUNOTHERAPY-RESISTANT CANCER” (Washington University, priority 2022, published 2025).

Legend:
B-ALL [1] = test: Clinical case of B-ALL patient treated with blinatumomab and KTE-X19 (ZUMA-3); format: in vivo, human; details: person with B-ALL, CD19ΔTyr260
Description: A person with B-ALL was treated with chemotherapy followed by 2 cycles of blinatumomab as initial therapy. […] B lymphoblasts. Using targeted RNA sequencing, an in-frame deletion within the extracellular domain of CD19 at […]) was identified (FIG. 6A).

B-ALL [2] = details: patients receiving blinatumomab or anti-CD19 CAR T for B-ALL; cited from earlier work

In the case of “blinatumomab: CD19 bispecific T-cell engager approved for R/R B-ALL”, the Clinical response (B-ALL [1]) is given as “relapsed after the second cycle” and the “Patients in whom emergence of CD19-negative clones is a cause of relapse” value (B-ALL [2]) is given as 10%-20%.
